Several values for one entry are separate records, joined by “and”; a condition that tells them apart may be missing. Equal entries are not always repeated. Where two headings read alike, the source gives them in different places. Bridge positions count the residues as written; N and C are the ends. Peptide text beside a SMILES is read from it.

By Kd is commonly meant the concentration at which binding is half-saturated. By cell viability is commonly meant a read-out of living cells in per cent, often relative to untreated cells. High values mean less harm to the cells, low ones more harm to the cells.

Series [1] deals with T1, 6-His-tagged recombinant GABARAP (Homo sapiens, UniProt O95166).
T1 construct: purchased Abcam, Cambridge, UK
Nature of the series: Microscale Thermophoresis (MST) binding affinity. The procedure: The binding affinity (Kd) between the target protein (6-His-tagged recombinant GABARAP, produced by Abcam, Cambridge, UK) and peptide ligands (K1, WC8 and WC10, acquired by ProteoGenix, Schiltigheim, France) was measured by MST [22]. Briefly, histidine-tagged GABARAP was labeled by using a His-tag-specific dye for 30 min at room temperature, using either the conventional Monolith His-Tag Labeling Kit RED-tris-NTA (MO-L008) or the newer Monolith His-Tag Labeling Kit RED-tris-NTA 2nd Generation (MO-L018), both purchased from NanoTemper Technologies (GmbH, München, Germany). MST experiments were performed on both a Monolith NT.115 and a Monolith NT.115Pico instrument (NanoTemper Technologies, München, GmbH), in order to further increase the statistical significance of the attained results.
A fixed concentration of the labeled GABARAP protein was mixed with 16 1:1 serial dilutions of K1, WC8, and WC10. The protein and the peptide were incubated for 60–90 min at room temperature. The MST analysis was performed using standard capillaries, with the following experimental settings: an MST power of 40% (to create a temperature gradient) and a different excitation power in relation to the considered system and instrument (see Supplementary Materials for details, Table S1). Kd values were calculated from compound concentration-dependent changes of normalized fluorescence (Fnorm). In all the experiments, both the protein and the peptides were dissolved in PBS-T buffer (phosphate-buffered saline + 0.05% Tween™ 20; NanoTemper Technologies, GmbH) and 2.5% DMSO. The auto-fluorescence of each peptide was evaluated before proceeding to the determination of the Kd. At least two independent experiments were performed to calculate the Kd values. Data were processed using the NanoTemper MO.Affinity Analysis software (version 2.3), and the fitting was performed by using the Kd model. […]
Table S1. Summary table of the Microscale Thermophoresis (MST) experiments performed on both
Monolith NT.115 and Monolith NT.115Pico instruments. At least two independent experiments were
performed to compute the Kd value.
Protein Ligand MST Exc. Temp. [Ligand] Range SNR* Kd (µM)
On the technique in general: MST reads how a fluorescent partner responds to local heating, with and without ligand.

Series [2] deals with PC-3 prostate cancer cells. The settings on record: human, 96 h, 10 µM.
Method: (§1) PC-3 prostate cancer cell line was purchased from the American Type Culture Collection (ATCC, Manassas, VA, USA), cultured at 37 °C and 5% CO2 in Ham’s F-12 K (Kaighn’s) basal medium (Gibco Laboratories, Grand Island, NY, USA), supplemented with 10% FBS (Gibco Laboratories) and 1% of 100 U/mL penicillin/streptomycin (Gibco Laboratories).
(§2) PC-3 and PNT2 cell lines were seeded at a density of 1 × 10^4 cells/well in 96-well plates and maintained under standard growth conditions.
(§3) After 96 h, cell viability was assessed by MTS assay according to the manufacturer’s protocol (Cell Titer 96 Aqueous One Solution Cell Proliferation Assay; Promega, Nacka, Sweden) using a 96-well-plate spectrophotometer (Varioskan Flash Multimode Reader; Thermo-Scientific, Waltham, MA, USA) set at λ = 490 nm. The absorbance value of untreated cells was set at 100% (control), and the viability of treated cells was expressed as a percentage of the control. Three independent experiments were performed in triplicate for each condition.
The target in series [3] is T2, GABARAP (Homo sapiens, UniProt O95166). Set-up: method as in PMID 18638487. The settings on record: SPR; cited from earlier work.
For series [4], the target named is T2, GABARAP. Nature of the series: Surface Plasmon Resonance (SPR), steady-state affinity. In kind it is binding. The procedure: SPR experiments were performed on a BIAcore 8K system (Cytiva, Marlborough, MA, USA). GABARAP was dissolved in 10 mM of sodium acetate (pH 5.5) and amine-coupled to a CM5 sensor chip (GE Healthcare, Chicago, IL, USA). The reference peptide K1 was dissolved in the running buffer (10 mM Hepes, pH 7.4, 150 mM NaCl) at concentrations of 10 μM to 156 nM. Gradient concentrations of K1 were injected at a flow rate of 30 μL/min, contact time 120 s at 25 °C. WC8 and WC10 were both dissolved in the running buffer (Sigma-Aldrich Dulbecco’s PBS, pH 7.4, 0.005% Tween™ and 5% DMSO; Sigma-Aldrich, St. Louis, MO, USA) at concentrations of 100 μM to 6.25 μM and 12.5 μM to 390 nM, respectively. Gradient concentrations of the peptides were then flowed over the chip with a flow rate of 30 μL/min, contact time 120 s at 25 °C. […] Two independent experiments for WC8 and WC10 were performed. The binding kinetics were evaluated using the BIAevaluation software package and applying the 1:1 steady-state affinity model.

The nature of series [5]: Solubility and stability in water and PBS buffer.
From the text: Initially, we verified that the peptides were water soluble and stable in the buffer in which the recombinant GABARAP protein was solved.
Series [6] has as its system PC-3 prostate cancer cells. Nature of the series: MTS cell viability assay on PC-3 cells. The settings on record: for cell viability: PC-3, highest tested concentration (10 µM), 96 h post-treatment, % of untreated control. In general terms: Tetrazolium assays rely on reduction of a dye to a coloured formazan, in cell work by metabolically active cells.
Method: as §1, §2, §3
The target in series [7] is T2, GABARAP. Details: method as in PMID 29867141. The note with it: cited from earlier work.
Setting [8] is: Kd (MST), Monolith NT.115Pico, GABARAP 10 nM, 25°C.
[9] abbreviates: Kd on GABARAP, consistent among MST and SPR.

T2 sequence (O95166 whole entry): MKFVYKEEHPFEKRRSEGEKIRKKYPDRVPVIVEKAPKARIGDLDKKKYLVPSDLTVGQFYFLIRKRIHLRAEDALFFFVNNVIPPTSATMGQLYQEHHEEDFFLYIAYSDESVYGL
T1 sequence (O95166 whole entry): as above

For `CC(C)C[C@H](NC(=O)[C@H](Cc1c[nH]cn1)NC(=O)[C@H](CCC(=O)O)NC(=O)[C@H](Cc1c[nH]c2ccccc12)NC(=O)[C@@H](NC(=O)[C@H](Cc1ccc(O)cc1)NC(=O)[C@@H](NC(=O)[C@H](C)NC(=O)[C@@H](N)CC(=O)O)[C@@H](C)O)[C@@H](C)O)C(=O)N[C@@H](C)C(=O)N[C@@H](Cc1c[nH]c2ccccc12)C(=O)N1CCC[C@H]1C(=O)O` [Peptide K1, DATYTWEHLAWP, reference compound], the Kd is 2.6 ± 0.4 µM in series [1] (Monolith NT.115, 25°C, PBS-T, 2.5% DMSO, read-out: Kd (MST)); 3.5 ± 0.9 µM in series [1] (Monolith NT.115Pico, GABARAP 10 nM, 25°C, read-out: Kd (MST)); approximately 3 µM in series [1] (consistent among MST and SPR, read-out: Kd on GABARAP); 0.39 µM and ~0.39 µM on GABARAP [3]; 3 µM at GABARAP [4] (BIAcore 8K, steady-state analysis, 25 °C, read-out: Kd (SPR)). This compound came in with a cell viability in series [2] of 27.16%.
For `CC[C@H](C)[C@@H]1NC(=O)[C@@H](NC(=O)[C@H](CCC(=O)O)NC(=O)[C@@H](N)Cc2c[nH]c3ccccc23)CSSC[C@@H](C(=O)O)NC(=O)[C@H](CCC(=O)O)NC(=O)[C@H](CC(=O)O)NC(=O)[C@H](Cc2ccccc2)NC1=O` [WC8, WECIFDEC] (H-WECIFDEC-OH; disulfide 3-8; N-terminus assumed), the “stability in water and PBS” value in series [5] is “excellent stability”. Besides, the Kd was determined as 20.8 ± 2.7 µM in series [1] (setting [8]), 22 µM in series [1] (setting [9]) and 24.8 µM on GABARAP [4]. Further, the “Kd on GABARAP” value in series [1] (consistent among MST and SPR) is recorded as “low micromolar range”. For the same compound, in series [6] (PC-3, from 1 to 10 µM, 96 h), the “efficacy on PC-3 cells compared to Paclitaxel” value was “high efficacy”. Also, the cell viability in series [6] was determined as 24.06%.
Regarding `CC[C@H](C)[C@@H]1NC(=O)[C@@H](NC(=O)[C@H](CCC(=O)O)NC(=O)[C@H](Cc2c[nH]c3ccccc23)NC(=O)CNC(=O)[C@@H](N)Cc2c[nH]c3ccccc23)CSSC[C@@H](C(=O)O)NC(=O)[C@H](CCC(=O)O)NC(=O)[C@H](CC(=O)O)NC(=O)[C@H](Cc2ccccc2)NC1=O` [WC10, WGWECIFDEC] (H-WGWECIFDEC-OH; disulfide 5-10; N-terminus and C-terminus assumed), in series [5], the “stability in water and PBS” value is “excellent stability”. Moreover, the Kd in series [1] (Kd (MST), Monolith NT.115, 25°C, PBS-T, 2.5% DMSO) is 4.2 ± 1.8 µM; in series [1] (setting [8]), 3.8 ± 1.5 µM; in series [1] (setting [9]), approximately 4 µM; at GABARAP [4], 4.9 µM. The “Kd on GABARAP” value in series [1] (consistent among MST and SPR) is “low micromolar range”. Besides, the cell viability in series [6] stood at 22.5%.
EEWVIVSDEEIEEARQKA [AnkB-LIR]: in the series with GABARAP [7], the Kd was 0.00027 µM.
